This note sets out measurements from US10233182B2, “Substituted spirocyclic inhibitors of autotaxin” (X-Rx, Inc., priority 2014, dated 2019).

pIC50: −log10 of the molar value. Structures can show the parent of a compound that is named as a salt. Some results are limits rather than exact numbers.

The assay addresses Autotaxin (Homo sapiens (Human), UniProt Q13822). Kind of assay: Autotaxin LPC Cascade Assay. The class given is biochemical. Conditions: Autotaxin 5 nM, LPC 100 μM, choline oxidase/HRP/Ampliflu Red fluorescence read-out, 2% DMSO, RT; read-out: IC50 ATX Activity. Put shortly:
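Choline liberated from LPC by autotaxin during 1 h, after a 10-min RT compound preincubation, was converted through choline oxidase/HRP to a fluorescent Ampliflu Red product.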
In general, pIC50 refers to the negative decadic logarithm of the IC50, by convention in mol/L. On to `CC(C)[C@@H](NC(=O)c1cc(C(F)(F)F)ccc1F)C(=O)N1CCC2(CC1)C(=O)N(C)C(=O)N2c1cccc(S(C)(=O)=O)c1` [Example 15, (R)-2-Fluoro-N-(3-methyl-1-(3-methyl-1-(3-(methylsulfonyl)phenyl)-2,4-dioxo-1,3,8-triazaspiro[4.5]decan-8-yl)-1-oxobutan-2-yl)-5-(trifluoromethyl)benzamide], for which the pIC50 was at most 6.00. In the case of `Cc1ccc(C(F)(F)F)cc1C(=O)N[C@@H](C(=O)N1CCC2(CC1)C(=O)N(C)C(=O)N2c1ccc2[nH]ncc2c1)C(C)C` [Example 61, (R)—N-(1-(1-(1H-Indazol-5-yl)-3-methyl-2,4-dioxo-1,3,8-triazaspiro[4.5]decan-8-yl)-3-methyl-1-oxobutan-2-yl)-2-methyl-5-(trifluoromethyl)benzamide] it was at most 6.00; in that of `CC(C)[C@@H](NC(=O)c1cc(C(F)(F)F)ccc1F)C(=O)N1CCC2(CC1)C(=O)N(C)C(=O)N2c1ccc2c(cnn2C)c1` [Example 12, (R)-2-Fluoro-N-(3-methyl-1-(3-methyl-1-(1-methyl-1H-indazol-5-yl)-2,4-dioxo-1,3,8-triazaspiro[4.5]decan-8-yl)-1-oxobutan-2-yl)-5-(trifluoromethyl)benzamide], above 6.30.

`CN1C(=O)N(c2ccc3[nH]ncc3c2)C2(CCN(C(=O)CNC(=O)c3cc(C(F)(F)F)ccc3F)CC2)C1=O` [Example 70, N-(2-(1-(1H-Indazol-5-yl)-3-methyl-2,4-dioxo-1,3,8-triazaspiro[4.5]decan-8-yl)-2-oxoethyl)-2-fluoro-5-(trifluoromethyl)benzamide]: the negative logarithm of the IC50 (pIC50) was at most 6.00.

With `CCc1ccc(F)c(C(=O)N[C@@H](C(=O)N2CCC3(CC2)C(=O)N(C)CN3c2ccc(OCC#N)cc2)C(C)C)c1` [Example 170, (R)—N-(1-(1-(4-(Cyanomethoxy)phenyl)-3-methyl-4-oxo-1,3,8-triazaspiro[4.5]decan-8-yl)-3-methyl-1-oxobutan-2-yl)-5-ethyl-2-fluorobenzamide], the negative-log IC50 (pIC50) is above 6.30. In the case of `CC(C)[C@@H](NC(=O)c1cc(C(F)(F)F)ccc1F)C(=O)N1CCC2(CC1)C(=O)N(C)C(=O)N2c1ccc(OCCO)cc1` [Example 84, (R)-2-Fluoro-N-(1-(1-(4-(2-hydroxyethoxy)phenyl)-3-methyl-2,4-dioxo-1,3,8-triazaspiro[4.5]decan-8-yl)-3-methyl-1-oxobutan-2-yl)-5-(trifluoromethyl)benzamide] it was above 6.30; in that of `CC(C)[C@@H](NC(=O)c1cc(C(F)(F)F)ccc1F)C(=O)N1CCC2(CC1)C(=O)N(C)C(=O)N2C(C)c1ccccc1` (stereo partly drawn) [Example 92, 2-Fluoro-N-((2R)-3-methyl-1-(3-methyl-2,4-dioxo-1-(1-phenylethyl)-1,3,8-triazaspiro[4.5]decan-8-yl)-1-oxobutan-2-yl)-5-(trifluoromethyl)benzamide], 6.00 to 6.30.

`CC(C)[C@@H](NC(=O)c1cc(C(F)(F)F)ccc1F)C(=O)N1CCC2(CC1)C(=O)N(C)C(=O)N2c1ccc(OCC2CNC2)cc1` [Example 81, (R)—N-(1-(1-(4-(Azetidin-3-ylmethoxy)phenyl)-3-methyl-2,4-dioxo-1,3,8-triazaspiro[4.5]decan-8-yl)-3-methyl-1-oxobutan-2-yl)-2-fluoro-5-(trifluoromethyl)benzamide trifluoroacetic Acid Salt]: the pIC50 was at most 6.00. `COc1ccc(CN2C(=O)N(C)C(=O)C23CCN(C(=O)[C@H](NC(=O)c2cc(C(F)(F)F)ccc2F)C(C)C)CC3)cn1` [Example 97, (R)-2-Fluoro-N-(1-(1-((6-methoxypyridin-3-yl)methyl)-3-methyl-2,4-dioxo-1,3,8-triazaspiro[4.5]decan-8-yl)-3-methyl-1-oxobutan-2-yl)-5-(trifluoromethyl)benzamide]: the pIC50 was above 6.30. The figure for `CCc1ccc(F)c(C(=O)N[C@@H](C(=O)N2CCC3(CC2)C(=O)N(C)CN3c2ccc(NS(C)(=O)=O)cc2)C(C)C)c1` [Example 173, (R)-5-Ethyl-2-fluoro-N-(3-methyl-1-(3-methyl-1-(4-(methylsulfonamido)phenyl)-4-oxo-1,3,8-triazaspiro[4.5]decan-8-yl)-1-oxobutan-2-yl)benzamide] is above 6.30.
